Here are results for two compounds from patent EP0785195A1, “Piperidine or tetrahydropyridine derivatives having affinity for the serotonin 5-HTIA receptor” (AMERICAN HOME FOOD PRODUCTS, INC., priority 1996, dated 1997).

This assay concerns the target T1, 5-HT1A serotonin receptor (Rattus norvegicus, UniProt P19327).
T1 construct: from tissue; host or cells: rat brain membranes (inferred from the cited Hall et al. procedure)
T1 sequence (P19327 1-422): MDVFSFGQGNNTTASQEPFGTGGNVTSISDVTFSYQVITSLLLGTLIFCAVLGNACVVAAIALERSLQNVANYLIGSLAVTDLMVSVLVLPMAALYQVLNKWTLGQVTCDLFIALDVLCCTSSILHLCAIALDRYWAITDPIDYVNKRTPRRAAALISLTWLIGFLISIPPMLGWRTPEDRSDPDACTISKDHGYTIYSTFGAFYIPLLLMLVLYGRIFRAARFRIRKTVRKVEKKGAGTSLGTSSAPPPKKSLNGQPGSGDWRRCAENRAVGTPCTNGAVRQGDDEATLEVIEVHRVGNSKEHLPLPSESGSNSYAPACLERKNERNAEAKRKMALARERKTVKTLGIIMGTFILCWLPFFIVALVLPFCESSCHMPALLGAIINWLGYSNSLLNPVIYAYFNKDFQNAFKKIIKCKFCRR
As to the kind of experiment: displacement of [3H] 8-OHDPAT from the 5-HT1A serotonin receptor (procedure of Hall et al.). Format: binding. An excerpt:
8-OHDPAT (dipropylaminotetralin) from the 5-HT1A serotonin receptor following the procedure of Hall et al., J. Neurochem. 44, 1685 (1985).
On the technique in general: In a radioligand displacement assay an active substance lowers the binding of a labelled ligand.

Usually IC50 stands for the midpoint of a concentration-inhibition curve. High values mean weaker potency in that assay, low ones greater potency in that assay.

Compound `C[C@H](CN1CC=C(c2cccc3[nH]ccc23)CC1)Nc1ccccn1` [Example 1, {(R)-2-[4-(1H-Indol-4-yl)-(1,2,3,6-tetrahydro-pyridin-1-yl)]-1-methyl-ethyl}-(pyridin-2-yl)-amine] yielded an IC50 of 11.6 nM.

Regarding `C[C@H](CN1CC=C(c2cccc3[nH]ccc23)CC1)N(C(=O)C1CCCCC1)c1ccccn1` [Example 2], the IC50 was determined as 1.7 nM.
